{"source": "patent US20230416672A1", "about": "“Rhodococcus qingshengii bacterial strain that degrades imazethapyr and stimulates crop growth” (priority 2020, published 2023)", "key": {"[1]": {"test_system": "soft wheat (Triticum aestivum L.) variety Favorite", "assay": "Growth of soft wheat in soil artificially contaminated with imazethapyr (Example 2)", "type": "in vivo", "settings": "imazethapyr 10 mg/kg soil (Viaduk VK), without bacterization, 25 days", "protocol": "(§1) The soil in the experiment was artificially polluted with the herbicide preparation “Viaduk VK” (Active substance: imazethapyr, 100 g/L), introducing the drug with water for irrigation at a dosage, according to the instructions, to a final concentration of imazethapyr 10 mg/kg of soil. The soil was moistened to 50% of the total moisture capacity. Seeds of soft wheat (Triticum aestivum L.) varieties “Favorite” 20 pcs. were sown in 1-liter pots containing 1 kg of soil. […]\n(§2) The experiment was carried out under controlled conditions: at a temperature of 24/20° C., a light regime of 14/10 h (illumination—8000 lux), day/night, respectively, maintaining soil moisture at a level of 50% of the total moisture capacity by irrigation with settled tap water, the need for which was determined by weighing vessels. […] They were dried with filter paper, the length of roots and shoots was measured, they were separated and dried to constant weight at 65° C. […] The content of imazethapyr in soil was determined as described previously (Assalin M. R., Queiroz S. C. N., Ferracini V. L., Oliveira T., Vilhena E., Mattos M. L. T. A method for determination of imazapic and imazethapyr residues in soil using an ultrasonic assisted extraction and LC-MS/MS//Bull. Environ. Contam. Toxicol.—2014.—Vol. 93.—P. 360-364) using HPLC. […]"}, "[2]": {"assay": "Imazethapyr content in soil in laboratory experiment (Example 2, HPLC)", "settings": "end of experiment (47 days), original contaminated soil 6.17", "protocol": "as §1, §2"}}, "data": [{"smiles": "CCc1cnc(C2=NC(C)(C(C)C)C(=O)N2)c(C(=O)O)c1", "note": "(stereo not drawn) [imazethapyr]", "values": [{"measurement": "growth of wheat plants in freshly contaminated soil", "setting": "[1]", "result": "strong inhibition"}, {"measurement": "Imazethapyr content", "setting": "[2]; soil with wheat", "result": 5.90, "unit": "mg/kg"}, {"measurement": "Imazethapyr content", "setting": "[2]; soil without plants", "result": 5.87, "unit": "mg/kg"}]}]}
